Target: T1, BCL6::BCOR (Homo sapiens, UniProt P41182, C67R/C84N/C8Q)
T1 construct: BCL6 (amino acids 5 to 129, with the following changes to the natural protein); made in house; host or cells: E. coli
Test: BCL6::BCOR ULight TR-FRET assay
Assay type: binding
Description: Biological Methods BCL6::BCOR ULight TR-FRET Assay:
Biotinylated BCL6 protein corresponding to BCL6 (amino acids 5 to 129, with the following changes to the natural protein: C8Q, C67R, C84N) is expressed in E. coli with a carboxy-terminal Avi tag (amino acid sequence […]). The BCOR ULight peptide uses a direct carboxy-terminal ULight tag (PerkinElmer). The sequence of the peptide is CRSEIISTAPSSWVVPGP, with the amino terminus acetylated and the ULight tag attached to the cysteine. Compounds are dispensed onto assay plates (Proxiplate 384 PLUS, white, PerkinElmer) using an Access Labcyte Workstation with the Labcyte Echo 55×from a DMSO solution. For the chosen highest assay concentration of 100 μM, 150 nl of compound solution are transferred from a 10 mM DMSO compound stock solution. A series of 11 concentrations is transferred for each compound at which each concentration is fivefold lower than the previous one. DMSO is added such that every well has a total of 150 nl compound solution. 5 μL of 1 nM BCL6 protein in assay buffer (50 mM HEPES pH 7.3; 125 mM NaCl; 1 mM GSH; 0.01% Triton-X 100; 0.03% BSA) are added to the 150 nl of compounds. After 30 minutes incubation time at room temperature, 10 μL of a mix containing BCOR ULight peptide (100 nM final assay concentration) and Streptavidin-Europium (0.75 nM final assay concentration) are added. Plates are kept at room temperature. After 240 minutes incubation time the TR-FRET signal is measured in a PerkinElmer Envision HTS Multilabel Reader using the TR-FRET LANCE Ultra specs of PerkinElmer. Each plate contains negative controls (diluted DMSO instead of test compound; BCOR peptide and Streptavidin Europium mix with BCL6 protein) and positive controls (diluted DMSO instead of test compound; BCOR peptide and Streptavidin-Europium mix without BCL6 protein). Negative and positive control values are used for normalization.

IC50 [nM] | SMILES
82 | C[C@@H]1C[C@H](C)CN(c2ncc(Cl)c(Nc3ccc4c(c3)cc(O[C@H](C)C(=O)O)c(=O)n4C)n2)C1 (relative stereo) [Compound I-154]
12 | CNC(=O)COc1cc2cc(Nc3nc(N4C[C@H](C)C[C@@H](C)C4)ncc3Cl)ccc2n(C)c1=O (single isomer, unassigned) [Compound I-5]
7 | CNC(=O)COc1cc2cc(Nc3nc(N4C[C@@H](C)C[C@H](C)C4)ncc3Cl)ccc2n(C)c1=O (single isomer, unassigned) [Compound I-6]
18 | CNC(=O)COc1cc2cc(Nc3nc(N4C[C@H](CO)N[C@@H](C)C4)ncc3Cl)ccc2n(C)c1=O (single isomer, unassigned) [Compound I-10]
13 | CNC(=O)COc1cc2cc(Nc3nc(N4C[C@@H](CO)N[C@@H](C)C4)ncc3Cl)ccc2n(C)c1=O (single isomer, unassigned) [Compound I-11]
37 | C[C@@H]1C[C@H](C)CN(c2ncc(Cl)c(Nc3ccc4c(c3)cc(OC[S@@+](C)[O-])c(=O)n4C)n2)C1 (single isomer, unassigned) [Compound I-173]
16 | C[C@@H]1C[C@H](C)CN(c2ncc(Cl)c(Nc3ccc4c(c3)cc(OC[S+](C)[O-])c(=O)n4C)n2)C1 (single isomer, unassigned) [Compound I-174]
10 | COC(=O)COc1cc2cc(Nc3nc(N4C[C@H](C)C[C@H](C)C4)ncc3Cl)ccc2n(C)c1=O [Compound I-1, methyl 2-{[6-({5-chloro-2-[cis-3,5-dimethylpiperidin-1-yl]pyrimidin-4-yl}amino)-1-methyl-2-oxo-1,2-dihydroquinolin-3-yl]oxy}acetate]
9 | COC(=O)COc1cc2cc(Nc3nc(N4CCC(F)CC4)ncc3Cl)ccc2n(C)c1=O [Compound I-2, methyl 2-[(6-{[5-chloro-2-(4-fluoropiperidin-1-yl)pyrimidin-4-yl]amino}-1-methyl-2-oxo-1,2-dihydro-quinolin-3-yl)oxy]-acetate]
7 | CNC(=O)COc1cc2cc(Nc3nc(N4CCN(CCOC)CC4)ncc3Cl)ccc2n(C)c1=O [Compound I-3, 2-{[6-({5-chloro-2-[4-(2-methoxyethyl)piperazin-1-yl]pyrimidin-4-yl}amino)-1-methyl-2-oxo-1,2-dihydroquinolin-3-yl]oxy}-N-methylacetamide]
3 | CNC(=O)COc1cc2cc(Nc3nc(N4C[C@H](C)C[C@H](C)C4)ncc3Cl)ccc2n(C)c1=O [Compound I-4, 2-[(6-{[5-chloro-2-(cis-3,5-dimethylpiperidin-1-yl)pyrimidin-4-yl]amino}-1-methyl-2-oxo-1,2-dihydro-quinolin-3-yl)oxy]-N-methylacetamide]
5 | CNC(=O)COc1cc2cc(Nc3nc(N4C[C@H]5CC[C@@H](C4)O5)ncc3Cl)ccc2n(C)c1=O [Compound I-7, 2-({6-[(5-chloro-2-{8-oxa-3-azabicyclo[3.2.1]octan-3-yl}pyrimidin-4-yl)amino]-1-methyl-2-oxo-1,2-dihydroquinolin-3-yl}oxy)-N-methylacetamide]
21 | CNC(=O)COc1cc2cc(Nc3nc(N4C[C@H](C)C[C@@H](NC)C4)ncc3Cl)ccc2n(C)c1=O [Compound I-8, 2-{[6-({5-chloro-2-[(3R,5R)-3-methyl-5-(methylamino)piperidin-1-yl]pyrimidin-4-yl}amino)-1-methyl-2-oxo-1,2-dihydroquinolin-3-yl]oxy}-N-methylacetamide]
41 | CNC(=O)COc1cc2cc(Nc3nc(N4C[C@H](CO)N[C@H](C)C4)ncc3Cl)ccc2n(C)c1=O [Compound I-9, 2-{[6-({5-chloro-2-[(3R,5R)-3-(hydroxymethyl)-5-methylpiperazin-1-yl]pyrimidin-4-yl}amino)-1-methyl-2-oxo-1,2-dihydroquinolin-3-yl]oxy}-N-methylacetamide]
7 | CNC(=O)COc1cc2cc(Nc3nc(N4CC(C)NC(CF)C4)ncc3Cl)ccc2n(C)c1=O (centres unmarked) [Compound I-12, 2-{[6-({5-chloro-2-[3-(fluoromethyl)-5-methylpiperazin-1 yl]pyrimidin-4-yl}amino)-1-methyl-2-oxo-1,2-dihydroquinolin-3-yl]oxy}-N-methylacetamide]
5 | CNC(=O)COc1cc2cc(Nc3nc(N4CC(C)C(C(=O)N(C)C)C(C)C4)ncc3Cl)ccc2n(C)c1=O (centres unmarked) [Compound I-13, 1-[5-chloro-4-({1-methyl-3-[(methylcarbamoyl)-methoxy]-2-oxo-1,2-dihydroquinolin-6-yl}amino)pyrimidin-2-yl]-N,N,3,5-tetramethylpiperidine-4-carboxamide]
20 | CNC(=O)COc1cc2cc(Nc3nc(N4C[C@H](C(F)(F)F)C[C@H](C(F)(F)F)C4)ncc3Cl)ccc2n(C)c1=O [Compound I-14, 2-{[6-({2-[cis-3,5-bis(trifluoromethyl)piperidin-1-yl]-5-chloropyrimidin-4-yl}amino)-1-methyl-2-oxo-1,2-dihydroquinolin-3-yl]oxy}-N-methyl-acetamide]
32 | CNC(=O)COc1cc2cc(Nc3nc(N4CCN(c5ccccn5)CC4)ncc3Cl)ccc2n(C)c1=O [Compound I-15]

IC50 [nM] | SMILES
10 | CNC(=O)COc1cc2cc(Nc3nc(N4CCN(CCN(C)C)C(=O)C4)ncc3Cl)ccc2n(C)c1=O [Compound I-16]
8 | CNC(=O)COc1cc2cc(Nc3nc(N4CCCC[C@H]4C)ncc3Cl)ccc2n(C)c1=O [Compound I-17]
7 | CNC(=O)COc1cc2cc(Nc3nc(N4CCN(C(=O)CN(C)C)CC4)ncc3Cl)ccc2n(C)c1=O [Compound I-18]
6 | CNC(=O)COc1cc2cc(Nc3nc(N4CCCCC4)ncc3Cl)ccc2n(C)c1=O [Compound I-19]
6 | CNC(=O)COc1cc2cc(Nc3nc(N4CCN(CCN(C)C)CC4)ncc3Cl)ccc2n(C)c1=O [Compound I-20]
12 | CNC(=O)COc1cc2cc(Nc3nc(N4CCCC(F)CC4)ncc3F)ccc2n(C)c1=O (centres unmarked) [Compound I-21]
10 | CNC(=O)COc1cc2cc(Nc3nc(N4CCC(F)CC4)ncc3F)ccc2n(C)c1=O [Compound I-22]
9 | CNC(=O)COc1cc2cc(Nc3nc(N4C[C@H](C)C[C@H](C)C4)ncc3F)ccc2n(C)c1=O [Compound I-23]
13 | CNC(=O)COc1cc2cc(Nc3nc(N4CC(C)(C)CC(C)(C)C4)ncc3Cl)ccc2n(C)c1=O [Compound I-24]
4 | CNC(=O)COc1cc2cc(Nc3nc(N4CCC(F)CC4)ncc3Cl)ccc2n(C)c1=O [Compound I-25]
4 | CNC(=O)COc1cc2cc(Nc3nc(N4CCC(F)(F)CC4)ncc3Cl)ccc2n(C)c1=O [Compound I-26]
6 | CNC(=O)COc1cc2cc(Nc3nc(N4CCC(F)(F)CC4)ncc3F)ccc2n(C)c1=O [Compound I-27]
12 | CNC(=O)COc1cc2cc(Nc3nc(N4CCC(C(=O)N(C)C)CC4)ncc3F)ccc2n(C)c1=O [Compound I-28]
10 | CNC(=O)COc1cc2cc(Nc3nc(N4CCCC(F)(F)C4)ncc3Cl)ccc2n(C)c1=O [Compound I-29]
5 | CNC(=O)COc1cc2cc(Nc3nc(N4CCC(C#N)CC4)ncc3Cl)ccc2n(C)c1=O [Compound I-30]
6 | CNC(=O)COc1cc2cc(Nc3nc(N4CCC5(CC4)CC5)ncc3Cl)ccc2n(C)c1=O [Compound I-31]
5 | CNC(=O)COc1cc2cc(Nc3nc(N4CCC(O)(C(F)(F)F)CC4)ncc3Cl)ccc2n(C)c1=O [Compound I-32]

Reference: patent US11001570B2, “6-amino-quinolinone compounds and derivatives as BCL6 inhibitors” (Boehringer Ingelheim International GmbH, priority 2016, dated 2021)
